Here are results for 1 molecule from patent publication US10688146B2, “Curcuma mangga val et. zipp. extract as a treatment to overcome prostate problems” (PT DEXA MEDICA, priority 2013, dated 2020).

The subject of one assay is DHT. As to the kind of experiment: DHT quantification with Elisa kit in PC3 cells treated with excessive testosterone. Type of assay: cell-based, human. Conditions: PC3 cells with excessive testosterone 8.8 μg/ml, finasteride 2 μg/ml (positive control). The procedure: Total protein was isolated after 24 hours treatment with the extract of Curcuma mangga Val. et Zipp. The isolation was performed using Lysis Buffer and TRIzol method. The result of total protein isolation further was calculated using Lowry method. Protein that was obtained subsequently was used as a sample for Western Blot against 5-alpha-reductase and DHT, and the DHT test using Elisa kit Alpha Diagnostic International. The analytical process of semi-Western Blot was performed in accordance to the general method, which is using specific antibody for 5-alpha-reductase-1 and DHT. The detection of Western Blot was performed using HRP-conjugated (Horseradish Peroxidase) secondary antibody and coloring with luminol.
Quantitative analysis was performed using Elisa kit in accordance to the protocol provided by the manufacturer. PC3 cells that were used in this present invention was treated with excessive testosterone which is 8.8 μg/ml, and was treated with 150 μg/ml Curcuma mangga Val. et Zipp extract and 2 μg/ml finasteride, in separate groups. In this present invention, the finasteride treatment group was a positive control.

Assay [1] relates to male rats (Rattus norvegicus) Wistar strain with induced prostate gland growth. As to the kind of experiment: Inhibition of prostate gland growth in castrated, testosterone-induced rats. It is filed as in vivo. The following applies: finasteride 1 mg/kg. The procedure:
Animals that were used in the present invention were male rats (Rattus norvegicus) Wistar strain weighing between 200-250 grams from Indoanilab, Bogor, Indonesia. The animals were bred in special cages, in groups, with a normal light setting, which are 12 hours of light and 12 hours of dark and received food and drinking water ad libitum.
The animals were divided into five groups: sham-operated group (normal group), negative control group that is BPH group without any treatment, positive control group that is treated with finasteride 1 mg/kg of body weight, and treatment group which divided into two groups based on the dose of Curcuma mangga Val. et Zipp. extract that they received, namely 92.37 mg/kg and 184.74 mg/kg of body weight. In all animals the growth of its prostate gland were induced, except for the animals in the sham-operated group.
Those rats were induced with subcutaneous administration of testosterone injection to stimulate the growth of prostate gland at the dose of 10 mg/kg body weight, every day for 7 days. The administration of testosterone injection was performed after the removal of testes (castration) and sham surgery in rats. The castration procedures were performed to avoid bias caused by the differences of testosterone amount produced by each individual rat.

`CC(C)(C)NC(=O)[C@H]1CC[C@H]2[C@@H]3CC[C@H]4NC(=O)C=C[C@]4(C)[C@H]3CC[C@]12C` [finasteride]: the “DHT levels (Elisa kit)” value with DHT is on record as “reduced levels of DHT”. In addition, in assay [1], the DHT plasma concentration result is “suppression of DHT plasma concentration”.
